Our source for the Km values is paper PMC9706480, “Rhamnosyltransferases involved in the biosynthesis of flavone rutinosides in Chrysanthemum species” (Plant Physiology, 2022).

Usually Km stands for the substrate concentration at which the rate is half of its maximum.

Holding throughout (assay): UPLC rhamnosylation assay, Michaelis-Menten fit
What all share (details): 0.1 mM UDP-rhamnose as co-substrate; pH 7.5, 37 °C

The subject of one assay is T1, CiRhaT-JX4x (UGT79A21).
T1 construct: full-length, 469 aa, MBP fusion (pMAL-c5X, tag removal not mentioned), E. coli Rosetta (DE3)
It is filed as biochemical, Chrysanthemum indicum.

Another assay deals with T2, CnRhaT-HB2x (UGT79A23).
T2 construct: full-length, 469 aa, MBP fusion (pMAL-c5X, tag removal not mentioned), E. coli Rosetta (DE3)
In kind it is biochemical, Chrysanthemum nankingense.

The next assay relates to T3, CiRhaT-HB2x (UGT79A22).
T3 construct: full-length, 469 aa, MBP fusion (pMAL-c5X, tag removal not mentioned), E. coli Rosetta (DE3)
It is filed as biochemical, Chrysanthemum indicum.

Another assay concerns T4, CiRhaT-GD4x (UGT79A20).
T4 construct: full-length, 469 aa, MBP fusion (pMAL-c5X, tag removal not mentioned), E. coli Rosetta (DE3)
In kind it is biochemical, Chrysanthemum indicum.

With `COc1ccc(-c2cc(=O)c3c(O)cc(O[C@@H]4O[C@H](CO)[C@@H](O)[C@H](O)[C@H]4O)cc3o2)cc1` [compound 1, acacetin-7-O-glucoside], the Km with CiRhaT-JX4x (UGT79A21) is 8.27 ± 0.984 µM; in the assay with CnRhaT-HB2x (UGT79A23), 9.45 ± 1.5 µM; with CiRhaT-HB2x (UGT79A22) it was 8.71 ± 1.79 µM; in the assay with CiRhaT-GD4x (UGT79A20) it was 14.2 ± 1.36 µM.
In the same order, the values of `O=c1cc(-c2ccc(O)cc2)oc2cc(O[C@@H]3O[C@H](CO)[C@@H](O)[C@H](O)[C@H]3O)cc(O)c12` [compound 2, apigenin-7-O-glucoside] are 45.3 ± 6.08 µM, 140 ± 32.1 µM, 57.1 ± 5.34 µM and 32.4 ± 5.9 µM.
As for `COc1ccc(-c2cc(=O)c3c(O)cc(O[C@@H]4O[C@H](CO)[C@@H](O)[C@H](O)[C@H]4O)cc3o2)cc1O` [compound 3, diosmetin-7-O-glucoside], the Km in the assay on CiRhaT-JX4x (UGT79A21) is 7.67 ± 0.809 µM; in the assay on CnRhaT-HB2x (UGT79A23) it was 17.7 ± 2.82 µM; in the assay with CiRhaT-HB2x (UGT79A22), 9.35 ± 1.38 µM; with CiRhaT-GD4x (UGT79A20), 12.9 ± 1.27 µM.
